From the supplement of paper PMC7840683
Counter-ions that a name gives are not always drawn. ± gives the standard deviation of the averaged measurements.

Test system: HepaRG
Assay: LDH release cytotoxicity, % of total lysis control; higher = more cytotoxic
Conditions: 48 h
In short: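 On collagen I-coated 96-well plates, single-lot HepaRG cells were exposed for 48 h, in duplicate, to eight-point half-log series of test chemicals beginning at 100 µM. The exposure medium was serum-free induction medium with 0.5% DMSO, and total lysis wells got 0.1% Triton X. Resorufin fluorescence from the CytoTox-ONE reaction, read on a Tecan Safire, reported LDH in 50 µL of spent medium. Percent cytotoxicity came from normalization to on-plate vehicle and total lysis controls, averaged over the duplicates.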

`CCNc1ccccc1` [N-Ethylaniline] gave an LDH release cytotoxicity (0.03162 µM) of -1.05 ± 0.66%, an LDH release cytotoxicity (0.1 µM) of -1.82 ± 1.1% and an LDH release cytotoxicity (0.3162278 µM) of -0.782 ± 1.1%. The LDH release cytotoxicity (1 µM) was -2.09 ± 1.1%, the LDH release cytotoxicity (3.16228 µM) was -0.812 ± 0.9% and the LDH release cytotoxicity (10 µM) was -0.444 ± 0.085%. It also gave an LDH release cytotoxicity (31.6228 µM) of -0.781 ± 0.36% and an LDH release cytotoxicity (100 µM) of 0.942 ± 0.42%.

For `CC[C@H](C)[C@H]1O[C@]2(C=C[C@@H]1C)C[C@@H]1C[C@@H](C/C=C(\C)[C@@H](O[C@H]3C[C@H](OC)[C@@H](O[C@H]4C[C@H](OC)[C@@H](O)[C@H](C)O4)[C@H](C)O3)[C@@H](C)/C=C/C=C3\CO[C@@H]4[C@H](O)C(C)=C[C@@H](C(=O)O1)[C@]34O)O2.CO[C@H]1C[C@H](O[C@H]2[C@H](C)O[C@@H](O[C@@H]3/C(C)=C/C[C@@H]4C[C@@H](C[C@]5(C=C[C@H](C)[C@@H](C(C)C)O5)O4)OC(=O)[C@@H]4C=C(C)[C@@H](O)[C@H]5OC/C(=C\C=C\[C@@H]3C)[C@]54O)C[C@@H]2OC)O[C@@H](C)[C@@H]1O` [Abamectin], the LDH release cytotoxicity (0.0191318 µM) was -1.6 ± 0.53%, the LDH release cytotoxicity (0.0605 µM) was -0.607 ± 0.021% and the LDH release cytotoxicity (0.191318 µM) was -1.03 ± 0.44%. It also gave an LDH release cytotoxicity (0.605 µM) of -0.868 ± 0.18%, an LDH release cytotoxicity (1.913178 µM) of -1.21 ± 0.25% and an LDH release cytotoxicity (6.05 µM) of -1.13 ± 0.81%. For the same compound, the LDH release cytotoxicity (19.1318 µM) was 12.3 ± 1.8% and the LDH release cytotoxicity (60.5 µM) was 63.56 ± 0.26%.

With `CN(C)C(=S)S` [Sodium dimethyldithiocarbamate] the LDH release cytotoxicity (0.03162 µM) was -0.405 ± 0.41%, the LDH release cytotoxicity (0.1 µM) was -0.29 ± 1% and the LDH release cytotoxicity (0.3162278 µM) was -0.988 ± 0.04%. It also gave an LDH release cytotoxicity (1 µM) of -0.72 ± 0.44%, an LDH release cytotoxicity (3.16228 µM) of -0.138 ± 0.64% and an LDH release cytotoxicity (10 µM) of 0.154 ± 0.44%. The LDH release cytotoxicity (31.6228 µM) was 0.196 ± 0.41% and the LDH release cytotoxicity (100 µM) was 2.63 ± 2.6%.

With `CC(=O)C(C)=CC1C(C)=CCCC1(C)C` (stereo not drawn) [alpha-Isomethylionone] the LDH release cytotoxicity (0.03162 µM) was -0.906 ± 0.49%, the LDH release cytotoxicity (0.1 µM) was -1.92 ± 0.022% and the LDH release cytotoxicity (0.3162278 µM) was -1.73 ± 0.24%. The LDH release cytotoxicity (1 µM) was -1.69 ± 0.3%, the LDH release cytotoxicity (3.16228 µM) was -1.11 ± 0.41% and the LDH release cytotoxicity (10 µM) was -1.8 ± 0.12%. It also gave an LDH release cytotoxicity (31.6228 µM) of -0.46 ± 0.73% and an LDH release cytotoxicity (100 µM) of 0.422 ± 0.12%.

Work on `Fc1ccc(Oc2ccnc3cc(Cl)cc(Cl)c23)cc1` [Quinoxyfen] yielded an LDH release cytotoxicity (0.03162 µM) of -0.928 ± 1.3%, an LDH release cytotoxicity (0.1 µM) of -1.42 ± 1.2% and an LDH release cytotoxicity (0.3162278 µM) of -1.39 ± 0.3%. For the same compound, the LDH release cytotoxicity (1 µM) was -0.911 ± 0.14%, the LDH release cytotoxicity (3.16228 µM) was -1.44 ± 0.34% and the LDH release cytotoxicity (10 µM) was -0.367 ± 0.57%. For the same compound, the LDH release cytotoxicity (31.6228 µM) was -0.837 ± 0.58% and the LDH release cytotoxicity (100 µM) was 3.32 ± 2.2%.

`CCOCCOCCO` [2-(2-Ethoxyethoxy)ethanol] was tested, and the LDH release cytotoxicity (0.03162 µM) was 0.116 ± 0.16%, the LDH release cytotoxicity (0.1 µM) was -1.88 ± 0.064% and the LDH release cytotoxicity (0.3162278 µM) was -1.03 ± 0.55%. For the same compound, the LDH release cytotoxicity (1 µM) was -1.82 ± 0.14%, the LDH release cytotoxicity (3.16228 µM) was -1.06 ± 0.26% and the LDH release cytotoxicity (10 µM) was -0.761 ± 0.11%. It also gave an LDH release cytotoxicity (31.6228 µM) of -0.843 ± 0.34% and an LDH release cytotoxicity (100 µM) of -0.504 ± 0.29%.

Work on `CCCCOC(=O)CC(CC(=O)OCCCC)(OC(C)=O)C(=O)OCCCC` [Acetyl tributyl citrate] yielded an LDH release cytotoxicity (0.03162 µM) of -1.13 ± 2%, an LDH release cytotoxicity (0.1 µM) of -1.34 ± 0.08% and an LDH release cytotoxicity (0.3162278 µM) of -1.35 ± 0.17%. It also gave an LDH release cytotoxicity (1 µM) of -1.86 ± 1.8%, an LDH release cytotoxicity (3.16228 µM) of -1.7 ± 0.77% and an LDH release cytotoxicity (10 µM) of -0.33 ± 1.3%. It also gave an LDH release cytotoxicity (31.6228 µM) of -0.458 ± 0.058% and an LDH release cytotoxicity (100 µM) of 0.439 ± 0.83%.

`N#CC(CCc1ccc(Cl)cc1)(Cn1cncn1)c1ccccc1` (stereo unspecified) [Fenbuconazole] gave an LDH release cytotoxicity (0.03162 µM) of -0.994 ± 0.62%, an LDH release cytotoxicity (0.1 µM) of -0.764 ± 0.82% and an LDH release cytotoxicity (0.3162278 µM) of -0.539 ± 0.46%. The LDH release cytotoxicity (1 µM) was -0.261 ± 2.2%, the LDH release cytotoxicity (3.16228 µM) was -0.9 ± 0.043% and the LDH release cytotoxicity (10 µM) was -0.281 ± 0.28%. It also gave an LDH release cytotoxicity (31.6228 µM) of 5.08 ± 0.15% and an LDH release cytotoxicity (100 µM) of 31.3 ± 1.4%.

`O=C(c1ccccc1)C1CCCCC1` [Cyclohexylphenylketone] was tested, and the LDH release cytotoxicity (0.03162 µM) was -1.79 ± 0.41%, the LDH release cytotoxicity (0.1 µM) was -2.63 ± 2.5% and the LDH release cytotoxicity (0.3162278 µM) was -0.957 ± 0.23%. It also gave an LDH release cytotoxicity (1 µM) of -1.4 ± 1%, an LDH release cytotoxicity (3.16228 µM) of -1.03 ± 1% and an LDH release cytotoxicity (10 µM) of -0.851 ± 0.87%. The LDH release cytotoxicity (31.6228 µM) was -0.8 ± 0.37% and the LDH release cytotoxicity (100 µM) was 0.0978 ± 0.62%.

For `O=C1c2c(O)cccc2Cc2cccc(O)c21` [Anthralin], the LDH release cytotoxicity (0.03162 µM) was -2.38 ± 0.42%, the LDH release cytotoxicity (0.1 µM) was -0.784 ± 0.21% and the LDH release cytotoxicity (0.3162278 µM) was -1.25 ± 0.88%. The LDH release cytotoxicity (1 µM) was -0.891 ± 0.4%, the LDH release cytotoxicity (3.16228 µM) was -0.148 ± 1.6% and the LDH release cytotoxicity (10 µM) was -1.12 ± 0.49%. The LDH release cytotoxicity (31.6228 µM) was -0.933 ± 0.26% and the LDH release cytotoxicity (100 µM) was -0.256 ± 0.28%.

`COCc1cnc(C2=NC(C)(C(C)C)C(=O)N2)c(C(=O)O)c1` (stereo unspecified) [Imazamox] gave an LDH release cytotoxicity (0.03162 µM) of -0.37 ± 0.36%, an LDH release cytotoxicity (0.1 µM) of -1.71 ± 1.1% and an LDH release cytotoxicity (0.3162278 µM) of -1.61 ± 0.19%. It also gave an LDH release cytotoxicity (1 µM) of -1.73 ± 0.34%, an LDH release cytotoxicity (3.16228 µM) of -1.43 ± 0.53% and an LDH release cytotoxicity (10 µM) of -1.49 ± 0.15%. The LDH release cytotoxicity (31.6228 µM) was -2 ± 0.16% and the LDH release cytotoxicity (100 µM) was -0.764 ± 0.39%.

In the case of `CC(C)Nc1nc(Cl)nc(NC(C)C)n1` [Propazine], the LDH release cytotoxicity (0.03162 µM) is reported as -0.771 ± 1.3%, the LDH release cytotoxicity (0.1 µM) is reported as -0.918 ± 1.2% and the LDH release cytotoxicity (0.3162278 µM) is reported as -0.266 ± 0.027%. It also gave an LDH release cytotoxicity (1 µM) of -0.0277 ± 0.68%, an LDH release cytotoxicity (3.16228 µM) of -0.787 ± 0.95% and an LDH release cytotoxicity (10 µM) of -0.398 ± 0.52%. The LDH release cytotoxicity (31.6228 µM) was -0.397 ± 0.52% and the LDH release cytotoxicity (100 µM) was -0.828 ± 0.37%.

For `CC12CCC3c4ccc(O)cc4CCC3C1CCC2O` (stereo not drawn) [17alpha-Estradiol], the LDH release cytotoxicity (0.03162 µM) was -0.65 ± 1.4%, the LDH release cytotoxicity (0.1 µM) was -1.91 ± 0.5% and the LDH release cytotoxicity (0.3162278 µM) was -1.67 ± 0.056%. For the same compound, the LDH release cytotoxicity (1 µM) was -1.6 ± 0.054%, the LDH release cytotoxicity (3.16228 µM) was -1.26 ± 0.039% and the LDH release cytotoxicity (10 µM) was -1.72 ± 0.24%. The LDH release cytotoxicity (31.6228 µM) was -0.072 ± 0.52% and the LDH release cytotoxicity (100 µM) was 1.51 ± 0.69%.

`O=C(O)CCCOc1ccc(Cl)cc1Cl` [2,4-Dichlorophenoxybutyric acid] gave an LDH release cytotoxicity (0.03162 µM) of -2.25 ± 0.88%, an LDH release cytotoxicity (0.1 µM) of -0.951 ± 0.37% and an LDH release cytotoxicity (0.3162278 µM) of -1.77 ± 0.11%. The LDH release cytotoxicity (1 µM) was -1.33 ± 0.28%, the LDH release cytotoxicity (3.16228 µM) was -1.43 ± 0.78% and the LDH release cytotoxicity (10 µM) was -0.351 ± 0.14%. The LDH release cytotoxicity (31.6228 µM) was -1.14 ± 0.056% and the LDH release cytotoxicity (100 µM) was 0.81 ± 0.16%.

`Cc1occc1C(=O)Nc1ccc(C(=O)N2CCC(F)(F)/C(=C\C(=O)N3CCC(N4CCCCC4)CC3)c3ccccc32)cc1` [YM218] was tested, and the LDH release cytotoxicity (0.01976 µM) was -1.36 ± 0.064%, the LDH release cytotoxicity (0.0625 µM) was -1.93 ± 1.9% and the LDH release cytotoxicity (0.197642 µM) was -3.13 ± 1.1%. For the same compound, the LDH release cytotoxicity (0.625 µM) was -2.977 ± 0.0083%, the LDH release cytotoxicity (1.976424 µM) was -3.81 ± 0.63% and the LDH release cytotoxicity (6.25 µM) was -2.99 ± 0.55%. For the same compound, the LDH release cytotoxicity (19.7642 µM) was -1.84 ± 0.55% and the LDH release cytotoxicity (62.5 µM) was 19.8 ± 2.1%.

`Cc1ccccc1COC1CC2(C(C)C)CCC1(C)O2` (stereo unspecified) [Cinmethylin] gave an LDH release cytotoxicity (0.03162 µM) of -0.203 ± 0.059%, an LDH release cytotoxicity (0.1 µM) of -1.15 ± 0.52% and an LDH release cytotoxicity (0.3162278 µM) of -1.3 ± 0.27%. The LDH release cytotoxicity (1 µM) was -1.23 ± 0.093%, the LDH release cytotoxicity (3.16228 µM) was -1.09 ± 0.76% and the LDH release cytotoxicity (10 µM) was -0.853 ± 0.059%. The LDH release cytotoxicity (31.6228 µM) was -0.668 ± 0.63% and the LDH release cytotoxicity (100 µM) was 1.99 ± 1.4%.

`CC(C)(O)c1coc(S(=O)(=O)NC(=O)Nc2c3c(cc4c2CCC4)CCC3)c1` was tested, and the LDH release cytotoxicity (0.03162 µM) was -0.467 ± 0.54%, the LDH release cytotoxicity (0.1 µM) was -0.342 ± 0.93% and the LDH release cytotoxicity (0.3162278 µM) was -0.339 ± 0.74%. The LDH release cytotoxicity (1 µM) was 0.236 ± 0.21%, the LDH release cytotoxicity (3.16228 µM) was 0.788 ± 0.39% and the LDH release cytotoxicity (10 µM) was 0.179 ± 0.27%. For the same compound, the LDH release cytotoxicity (31.6228 µM) was 0.394 ± 0.043% and the LDH release cytotoxicity (100 µM) was 1.465 ± 0.0083%.
